The numbers were not newly measured in US20070104896A1, “Optical film, polarizing plate and image display device” (FUJIFILM Corporation, priority 2005, published 2007), which cites them from elsewhere.

SMILES strings stand for the structures.

The conditions of this series: pKa of a conjugated acid of the organic base; values in an aqueous solution.
Consider `Cc1ncc[nH]1` [b-12, 2-Methyl imidazole], for which the pKa is on record as 7.6.

Turning to `CN(C)c1cccnc1` [b-9, 3-(N,N-Dimethylamino)pyridine], the pKa is 6.5.

As to `CN1CCOCC1` [b-14, N-Methylmorpholine], the pKa is on record as 7.8.

With `CN(C)C` [b-18, Trimethylamine], the pKa is 9.9.

On to `COCCNCCOC` [b-15, Bis(2-methoxyethyl)amine], for which the pKa was 8.9.

Turning to `Cc1ccncc1` [b-8, 4-Methylpyridine], the pKa is listed as 6.1.

`CCN1CCOCC1` [b-13, N-Ethylmorpholine]: the pKa was 7.7.

For the molecule `Cc1ccc2ccc3ccc(C)nc3c2n1` [b-5, 2,9-Dimethyl-1,10-phenanthroline], the pKa is 5.9.

Turning to `Cc1ccccn1` [b-7, 2-Methylpyridine], the pKa is 6.1.

Regarding `Cc1cccc(C)n1` [b-10, 2,6-Dimethylpyridine], the pKa is 7.0.

Consider `Cc1ccnc2c1ccc1c(C)ccnc12` [b-6, 4,7-Dimethyl-1,10-phenanthroline], for which the pKa is on record as 5.9.

Turning to `CN(C)CCO` [b-17, N,N-Dimethyl-2-aminoethanol], the pKa is reported as 9.5.
